# Reference: patent publication US20210205271A1 (The Johns Hopkins University, priority 2018, published 2021)
# Where “and” joins values, the source holds several entries; their conditions need not be identical. Identical values can stand only once.
# Tests used:
# [1] = cited from earlier work
# [2] = In vitro stability in mouse plasma; assay type: in vitro ADME; conditions: for In vitro stability in mouse (% remaining at 60 min) Plasma: 10 μM, 37° C.
# Method: (§1) In addition to solubility, all prodrugs were screened for in vitro metabolic stability in mouse jejunum homogenate, liver microsomes and plasma (see Table 3) to characterize their bioconversion to MBZ. The screening paradigm was designed to confirm activation of prodrugs to MBZ following oral administration in these highly metabolic sites. Initial screening was done in mouse jejunum homogenate by incubating the compounds for 60 min. […] Following jejunum stability, the prodrugs were screened in mouse liver microsomes.
# (§2) In vitro stability studies were done using mouse jejunum homogenate, mouse liver microsomes or naïve mouse plasma. For mouse jejunum homogenate stability study, washed mouse jejunum was diluted 10-fold in 0.1 M potassium phosphate buffer, and homogenized using probe sonication. Crude homogenate was then aliquoted to 1 mL and the homogenate was spiked with 10 μM of compound. Liver microsome stability assay was performed in 100 mM potassium phosphate buffer, pH 7.4, and reactions were initiated by addition of the liver microsomes to the incubation mixture (compound final concentration was 10 μM; 0.5 mg/mL microsomes). The plasma stability of the prodrugs was determined by spiking (10 μM) of prodrugs in 1 mL of plasma and incubating in an orbital shaker at 37° C. All the stability studies were conducted at predetermined times (0 and 60 min), where 100 μL aliquots of the mixture in triplicate were removed and the reaction was quenched by addition of three times the volume of ice cold acetonitrile spiked with the internal standard (losartan: 0.5 μM). The samples were vortex mixed for 30 sec and centrifuged at 10000×g for 10 min at 4° C. Fifty microliter of the supernatant was diluted with 50 μL water and transferred to a 2504 polypropylene vial sealed with a Teflon cap. Prodrug disappearance was monitored over time using liquid chromatography and tandem mass spectrometry (LC-MS/MS).
# (§3) Briefly, prodrugs were analyzed on a Thermo Scientific Accela UPLC system coupled to Accela open autosampler at ambient temperature with an Agilent Eclipse Plus column (100×2.1 mm i.d.) packed with a 1.8 μm C18 stationary phase. The autosampler was temperature controlled and operated at 10° C. The mobile phase used for the chromatographic separation was composed of acetonitrile/water containing 0.1% formic acid and with a flow rate of 0.4 mL/min for 4.5 min using gradient elution. The column effluent was monitored using TSQ Vantage triple-quadrupole mass-spectrometric detector, equipped with an electrospray probe set in the positive ionization mode. Samples were introduced into the ionization source through a heated nebulized probe (350° C.). Disappearance of prodrugs was measured from ratio of peak areas of analyte to IS.
# [3] = In vitro stability in mouse jejunum (intestinal) homogenate; assay type: in vitro ADME; conditions: for In vitro stability in mouse (% remaining at 60 min) Intestinal homogenate: 10 μM
# Method: as §1, §2, §3
# [4] = In vitro stability in mouse liver microsomes; assay type: in vitro ADME; conditions: for In vitro stability in mouse (% remaining at 60 min) Liver microsomes: 10 μM, 0.5 mg/mL microsomes
# Method: as §1, §2, §3
# physchem = conditions: for solubility at 24 h: 37 °C, thermodynamic from solid; for fold improvement in solubility over MBZ-C: 24 h, pH 7.4
# Method: The aqueous solubility was determined as previously reported using the shake-flask procedure published by Zhou, et al., 2007. The compound was added to PBS buffer (0.01 M) and shaken for 24 h at 37° C. to ensure saturation. After 24 h, the solution was centrifuged (10,000 rpm, 2 min, RT) filtered (0.45 μm PTFE) and the filtrate was diluted appropriately (i.e. neat, 1/10, 1/100, 1/1000) and the concentration of compound was determined using LC/MS.
# [5] = male, CD-1, mouse, in vivo, 30 mg/kg
# Method: (§4) All pharmacokinetic studies in mice were conducted according to protocols approved by the Animal Care and Use Committee at Johns Hopkins University. Male CD-1 mice between 25 and 30 g were obtained from Harlan, and maintained on a 12-h light-dark cycle with ad libitum access to food and water. […] The mice were sacrificed at specified time points post drug administration. For collection of plasma and brain tissue, animals were euthanized with CO2, and blood samples were collected in heparinized microtubes by cardiac puncture. Tissues were dissected and immediately flash frozen (−80° C.). Blood samples were spun at 2,000×g for 15 min, plasma was removed and stored at −80° C. until LC/MS analysis. Prior to extraction, frozen samples were thawed on ice. The calibration curves were developed using plasma and brain from naïve animals as a matrix. Plasma samples (50 μL), were processed using a single liquid extraction method by addition of 3004 of acetonitrile as with internal standard (losartan: 0.5 μM), followed by vortex mixing for 30 sec and then centrifugation at 10,000×g for 10 min at 4° C. For brain tissue, homogenized samples were vortex mixed and centrifuged as above. A 104 aliquot of supernatant was diluted with 35 µL of acetonitrile and mixed with 50 μL water containing 0.5 μM losartan as internal standard. Extracts were centrifuged at 10,000×g for 10 min at 4° C. Supernatants were transferred to 2504 polypropylene autosampler vials sealed with a Teflon cap. A volume of 34 was injected onto the ultra-performance liquid chromatography (UPLC) instrument for quantitative analysis by LC-MS/MS.
# The a priori level of significance for all analyses was defined asp <0.05.
# [6] = Chemical stability in PBS at 37° C. (LC-MS); assay type: physicochemical; conditions: for chemical stability: aqueous environment / PBS
# Method: Prodrugs were also tested for chemical stability in 0.01 M PBS for 60 min at 37° C. by monitoring intact prodrug using LC-MS. […] Thus prodrug 14 was not assessed in assays due to its significant instability in PBS at pH 7.4.
# Prodrug chemical stability was measured by the addition of 1 μL, of 10 mM DMSO stock solution to 1 mL of preheated (37° C.) […], resulting in a final concentration of 10 μM. The mixture was vortex mixed for 30 sec, and then incubated at 37° C. At specified time points 100 μL of the mixture was removed and extracted with 300 μL of cold acetonitrile (0° C.) with internal standard. This mixture was further diluted with 400 μL of water and the resulting solution was analyzed by LC-MS.
# [7] = in vivo, po
# Method: Brain concentrations of MBZ were also measured in tandem.
# as §4
In vitro stability in mouse (% remaining at 60 min) Plasma [2],In vitro stability in mouse (% remaining at 60 min) Intestinal homogenate [3],In vitro stability in mouse (% remaining at 60 min) Liver microsomes [4],fold improvement in solubility over MBZ-C (physchem),Structure (SMILES),also measured
,,,,"COC(=O)Nc1nc2ccc(C(=O)c3ccccc3)cc2[nH]1 [MBZ, Mebendazole]","oral bioavailability ([1]; pilot human study, one subject, intravenous and oral [3H]-mebendazole): 17%; bioavailability ([1]; second human study, five subjects): 22% and 12-35%"
85%,60%,,,"COC(=O)Nc1nc2cc(C(=O)c3ccccc3)ccc2n1C(C)OC(=O)C(C)(C)C (centres unmarked) [Compound 15, 1-(5-benzoyl-2-((methoxycarbonyl)amino)-1H-benzo[d]imidazol-1-yl)ethyl pivalate]",
4 ± 0%,37 ± 2%,,,"COC(=O)Nc1nc2cc(C(=O)c3ccccc3)ccc2n1COC(=O)C(C)(C)C [Compound 1, (5-Benzoyl-2-((methoxycarbonyl)amino)-1H-benzo[d]imidazol-1-yl)methyl pivalate]",
89%,46%,82%,,"COC(=O)Nc1nc2cc(C(=O)c3ccccc3)ccc2n1COP(=O)([O-])OC(C)OC(=O)OC(C)C.[Na+] (centres unmarked) [Compound 17, Methyl (5-benzoyl-1-(((hydroxy(((isopropoxycarbonyl)oxy)ethoxy)phosphoryl)oxy)methyl)-111-benzo[d]imidazol-2-yl)carbamate, sodium salt]",
78 ± 1%,30 ± 2%,24 ± 0%,greater than 200 fold,"COC(=O)Nc1nc2cc(C(=O)c3ccccc3)ccc2n1COC(=O)CCC(=O)O [Compound 8, 4-((5-Benzoyl-2-((methoxycarbonyl)amino)-1H-benzo[d]imidazol-1-yl)methoxy)-4-oxobutanoic acid]","solubility at 24 h (physchem; pH 7.4, aqueous buffer): 386 µg/mL"
,100%,,,"COC(=O)Nc1nc2cc(C(=O)c3ccccc3)ccc2n1C(OC(=O)C(C)(C)C)C(C)C (centres unmarked) [Compound 16, 1-(5-benzoyl-2-((methoxycarbonyl)amino)-1H-benzo[d]imidazol-1-yl)-2-methylpropyl pivalate]",
18 ± 0%,4 ± 0%,27 ± 0%,greater than 200 fold,"COC(=O)Nc1nc2cc(C(=O)c3ccccc3)ccc2n1COC(=O)OC[C@H]1OC(O)[C@H](O)[C@@H](O)[C@@H]1O (stereo partly drawn) [Compound 9, Methyl (5-benzoyl-1-((((((2R,3S,4S,5R)-3,4,5,6-tetrahydroxytetrahydro-2H-pyran-2-yl)methoxy)carbonyl)oxy)methyl)-1H-benzo[d]imidazol-2-yl)carbamate]","metabolized in mouse plasma ([2]; 60 min incubation): 82%; solubility at 24 h (physchem; pH 7.4, aqueous buffer): 220 µg/mL"
62 ± 1%,35 ± 4%,100 ± 2%,,"COC(=O)Nc1nc2cc(C(=O)c3ccccc3)ccc2n1COP(=O)(O)O [Compound 11, Methyl (5-benzoyl-1-((phosphonooxy)methyl)-1H-benzo[d]imidazol-2-yl)carbamate]",MBZ plasma concentration at 1 h post oral administration [5]: 8.53 ± 2.33 nmol/mL; stability in liver microsomes ([4]; 60 min incubation): stable
0 ± 0%,18 ± 1%,29 ± 1%,greater than 200 fold,"COC(=O)Nc1nc2cc(C(=O)c3ccccc3)ccc2n1COC(=O)CNC(=O)[C@H](CC(C)C)NC(C)=O [Compound 7, (5-Benzoyl-2-((methoxycarbonyl)amino)-1H-benzo[d]imidazol-1-yl)methyl acetyl-L-leucylglycinate]","MBZ plasma concentration at 1 h post oral administration [5]: 8.72 ± 0.63 nmol/mL; solubility at 24 h (physchem; pH 7.4, aqueous buffer): 85.5 µg/mL; chemical stability [6]: sufficiently stable"
73 ± 3%,1 ± 0%,14 ± 0%,"> 10,000 fold","COC(=O)Nc1nc2cc(C(=O)c3ccccc3)ccc2n1COP(=O)([O-])OCOC(=O)OC(C)C.[Na+] [Compound 12, Methyl (5-benzoyl-1-(((hydroxy(((isopropoxycarbonyl)oxy)methoxy)phosphoryl)oxy)methyl)-1H-benzo[d]imidazol-2-yl)carbamate, sodium salt]","MBZ plasma concentration at 1 h post oral administration [5]: 10.35 ± 2.57 nmol/mL; fold improvement in plasma MBZ over MBZ-C ([5]; po, 1 h): 3.6 fold; AUC0-t (MBZ, plasma) ([7]; male, CD-1, mouse, 30 mg/kg): 27.9 µM·h; brain AUC0-t ([7]; male, CD-1, mouse, 30 mg/kg): 21.9 µM·h; fold enhanced plasma AUC0-t compared to MBZ-C ([7]; male, CD-1, mouse, 30 mg/kg): 2.2 fold; fold increase in brain AUC0-t over MBZ-C ([7]; male, CD-1, mouse, 30 mg/kg): 1.7 fold; intact prodrug in brain samples ([7]; mouse): no intact prodrug was detected; intact prodrug in plasma samples ([7]; mouse): no intact prodrug was detected; AUC0-t (MBZ, brain) ([7]; mouse, 30 mg/kg): 21.9 ± 2.0 nmol·h/g; stability in intestinal tissue homogenate [3]: unstable"
,,,,"COC(=O)Nc1nc2cc(C(=O)c3ccccc3)ccc2n1COC(=O)CC[C@H](N)C(=O)O [Compound 14, (S)-2-Amino-5-((5-benzoyl-2-((methoxycarbonyl)amino)-1H-benzo[d]imidazol-1-yl)methoxy)-5-oxopentanoic acid]","solubility at 24 h (physchem; pH 7.4, water): 451 µg/mL; chemical stability, % remaining at 60 min ([6]; 0.01 M PBS, 37° C., 60 min): 0%; chemical stability [6]: too unstable"
